{"source": "patent US12599600B2", "about": "“Compositions and methods for preventing and treating headache through enhancing 2-arachydonyl glyerol activity” (Arizona Board of Regents on Behalf of the University of …, priority 2020, dated 2026)", "key": {"[1]": {"target": "T1, CB2R (Homo sapiens, UniProt P34972)", "T1 sequence (P34972 whole entry)": "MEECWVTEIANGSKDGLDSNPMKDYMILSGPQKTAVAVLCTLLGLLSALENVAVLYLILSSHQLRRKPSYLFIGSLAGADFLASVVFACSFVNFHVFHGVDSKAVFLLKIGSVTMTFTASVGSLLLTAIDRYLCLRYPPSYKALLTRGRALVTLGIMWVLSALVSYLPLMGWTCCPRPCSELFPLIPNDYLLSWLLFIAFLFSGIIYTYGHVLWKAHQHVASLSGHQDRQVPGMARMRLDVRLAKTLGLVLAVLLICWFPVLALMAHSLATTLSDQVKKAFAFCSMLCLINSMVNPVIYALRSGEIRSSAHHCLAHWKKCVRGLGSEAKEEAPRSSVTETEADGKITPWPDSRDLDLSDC", "settings": "cited from earlier work"}, "[2]": {"target": "GPR55 (Homo sapiens, UniProt Q9Y2T6)", "sequence (Q9Y2T6 whole entry, species assumed)": "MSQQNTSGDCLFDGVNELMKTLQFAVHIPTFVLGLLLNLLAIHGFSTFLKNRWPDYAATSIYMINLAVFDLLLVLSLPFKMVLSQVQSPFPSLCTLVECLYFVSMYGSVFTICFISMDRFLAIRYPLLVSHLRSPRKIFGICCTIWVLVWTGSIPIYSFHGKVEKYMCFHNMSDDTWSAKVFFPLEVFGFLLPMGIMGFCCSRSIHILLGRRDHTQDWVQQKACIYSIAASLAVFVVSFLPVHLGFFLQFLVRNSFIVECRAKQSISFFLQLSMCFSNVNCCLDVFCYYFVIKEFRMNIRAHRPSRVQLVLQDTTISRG", "settings": "cited from earlier work"}, "[3]": {"target": "T1, CB2R", "settings": "cited from earlier work", "remark": "listed apart in the source"}, "[4]": {"tested_on": "cortical KCl induced periorbital allodynia in female rats", "assay": "Cortical KCl induced periorbital (facial) allodynia in female rats", "format": "in vivo, rat", "settings": "for reversal of periorbital allodynia / prevention of periorbital allodynia: female rats", "protocol": "FIG. 2A-D: Cortical KCl, but not dural KCl, induces periorbital allodynia in female rats and activates cFOS. A. Cortical KCl (0.5 μL, 1M) induces significant periorbital allodynia that is not blocked by dural lidocaine (2%, 5 μl, 10-15 min) pretreatment. […] C. Comparing areas under the curves for A and B confirmed that cortical KCl, regardless of dural lidocaine, induces significant periorbital allodynia that is not replicated by dural application of KCl. D. Cortical KCl allodynia increases cortical cFos 90 min post-injection (n=3-4/group). Data are mean±SEM (n=8-11), one or two-way ANOVA, *p<0.05: **<0.01: ***p<0.001: dotted line-naïve.\nFIG. 8A-B: MAGL inhibition alleviates cortical KCl induced periorbital allodynia in female rats. […] Data are expressed mean±SEM (n=8-12), two-way RMANOVA Bonferroni, *p<0.051 **p<0.01: ****p<0.0001.\nFIG. 9A-B: ABHD6 inhibition alleviates cortical KCl induced periorbital allodynia in female rats. […] Data are expressed mean±SEM (n=8-12), two-way RMANOVA Bonferroni, *p<0.05: **p<0.01: ***p<0.001.\nFIG. 10A-B: Dual MAGL/ABHD6 inhibition alleviates cortical KCl induced periorbital allodynia in female rats. […] Data are expressed mean±SEM (n=7-14), two-way RMANOVA, Bonferroni, *p<0.05: **p<0.01: ****p<0.0001.\nFIG. 13A-B: MAGL inhibition and cannabinoid receptor selectivity. Injection of CB1R antagonist, rimonabant (1 mg/kg, IP) prior to KCl shifted onset of MJN110 (10 mg/kg, IP) by 30 min. CB2R antagonist, SR144528 (1 mg/kg, IP), injected prior to KCl blocked the anti-allodynic effect of MJN110. Data are expressed mean±SEM (n=9), one- and two-way ANOVA, *p<0.05, ***p<0.001, ****p<0.0001.\nData are expressed mean±SEM (n=8-12), two-way RMANOVA Bonferroni, *p<0.051 **p<0.01: ****p<0.0001.\nData are expressed mean±SEM (n=8-12), two-way RMANOVA Bonferroni, *p<0.05: **p<0.01: ***p<0.001.\nData are expressed mean+SEM (n=7-14), two-way RMANOVA, Bonferroni, *p<0.05: **p<0.01: ****p<0.0001.\nInjection of CB1R antagonist, rimonabant (1 mg/kg, IP) prior to KCl shifted onset of MJN110 (10 mg/kg, IP) by 30 min. CB2R antagonist, SR144528 (1 mg/kg, IP), injected prior to KCl blocked the anti-allodynic effect of MJN110. Data are expressed mean #SEM (n=9), one- and two-way ANOVA, *p<0.05, ***p<0.001, ****p<0.0001."}, "[5]": {"tested_on": "migraine pain", "settings": "preclinical, cited from earlier work"}}, "note": "pEC50, pKi: −log10 of the molar value.", "data": [{"compound": "CCCCC/C=C\\C/C=C\\C/C=C\\C/C=C\\CCCC(=O)OC(CO)CO", "note": "[2AG, 2-arachidonoylglycerol]", "values": [{"measurement": "pKi", "setting": "[1]", "value": "5.85 to 6.76"}, {"measurement": "pEC50", "setting": "[2]", "value": 6.21}, {"measurement": "pEC50", "setting": "[3]", "value": 8.40}, {"measurement": "Emax", "setting": "[3]", "value": 34, "unit": "%"}]}, {"compound": "O=C(N1CCCCC1c1ccccc1)n1cc(-c2ccc(-c3cccc(CO)c3)cc2)nn1", "note": "(centres unmarked) [KT182, (4-(3′-(hydroxymethyl)-[1,1′-biphenyl]-4-yl)-1H-1,2,3-triazol-1-yl)(2-phenylpiperidin-1-yl) methanone]", "values": [{"measurement": "reversal of periorbital allodynia", "setting": "[4]; KT182 2 mg/kg IP after cortical KCl (0.5 μL)", "value": "reverses"}, {"measurement": "prevention of periorbital allodynia", "setting": "[4]; KT182 2 mg/kg IP before cortical KCl (0.5 μL)", "value": "prevents"}]}, {"compound": "O=C(ON1C(=O)CCC1=O)N1CCN(C(c2ccc(Cl)cc2)c2ccc(Cl)cc2)CC1", "note": "[MJN110, 2,5-dioxopyrrolidin-1-yl 4-(bis(4-chlorophenyl)methyl)piperazine-1-carboxylate]", "values": [{"measurement": "reversal of periorbital allodynia", "setting": "[4]; MJN110 10 mg/kg IP after cortical KCl (0.5 μL)", "value": "reverses"}, {"measurement": "prevention of periorbital allodynia", "setting": "[4]; MJN110 10 mg/kg IP before cortical KCl (0.5 μL)", "value": "prevents"}]}, {"compound": "CCCCCc1cc(O)c2c(c1)OC(C)(C)[C@@H]1CCC(C)=C[C@@H]21", "note": "[THC]", "values": [{"measurement": "reduction of migraine pain", "setting": "[5]; acute", "value": "effective"}, {"measurement": "migraine-like pain", "setting": "[5]; repeated exposure", "value": "increases"}]}, {"compound": "CCN(CC)CC(=O)Nc1c(C)cccc1C", "note": "[lidocaine]", "values": [{"measurement": "block of cortical KCl induced periorbital allodynia", "setting": "[4]; dural lidocaine 2%, 5 μl, 10-15 min pretreatment, cortical KCl 0.5 μL, 1M", "value": "not blocked"}, {"measurement": "effect on periorbital allodynia after dural KCl", "setting": "[4]; lidocaine pretreatment, dural KCl 5 uL, 1M", "value": "no effect"}]}, {"compound": "Cc1c(C(=O)NN2CCCCC2)nn(-c2ccc(Cl)cc2Cl)c1-c1ccc(Cl)cc1", "note": "[rimonabant]", "values": [{"measurement": "shift of onset of MJN110 effect", "setting": "[4]; rimonabant 1 mg/kg IP prior to KCl, MJN110 10 mg/kg IP", "value": 30, "unit": "min"}]}, {"compound": "SR144528", "values": [{"measurement": "effect on the anti-allodynic effect of MJN110", "setting": "[4]; SR144528 1 mg/kg IP prior to KCl, MJN110 10 mg/kg IP", "value": "blocked"}]}]}
